ChEMBL document CHEMBL4732240, “Synthesis and antibacterial evaluation of new monobactams” (2021)
≈ marks a conversion by molar mass, not a printed value.

Tests used:
Format in all cases: functional
Escherichia coli [1] = assay: Antibacterial activity against Escherichia coli clinical isolate assessed as reduction in bacterial growth by CLSI based broth microdilution method
Escherichia coli [2] = assay: Antibacterial activity against Escherichia coli ATCC 8739 assessed as reduction in bacterial growth by CLSI based broth microdilution method
Klebsiella pneumoniae [3] = assay: Antibacterial activity against Klebsiella pneumoniae clinical isolate assessed as reduction in bacterial growth by CLSI based broth microdilution method
Klebsiella pneumoniae [4] = assay: Antibacterial activity against Klebsiella pneumoniae 700603 assessed as reduction in bacterial growth by CLSI based broth microdilution method
Enterobacter cloacae [5] = assay: Antibacterial activity against Enterobacter cloacae clinical isolate assessed as reduction in bacterial growth by CLSI based broth microdilution method
Enterobacter cloacae [6] = assay: Antibacterial activity against Enterobacter cloacae 700323 assessed as reduction in bacterial growth by CLSI based broth microdilution method
Acinetobacter baumannii [7] = assay: Antibacterial activity against Acinetobacter baumannii clinical isolate assessed as reduction in bacterial growth by CLSI based broth microdilution method
Acinetobacter baumannii [8] = assay: Antibacterial activity against Acinetobacter baumannii ATCC 19606 assessed as reduction in bacterial growth by CLSI based broth microdilution method; details: ATCC 19606 = CIP 70.34 = JCM 6841
Pseudomonas aeruginosa [9] = assay: Antibacterial activity against Pseudomonas aeruginosa clinical isolate. assessed as reduction in bacterial growth by CLSI based broth microdilution method
Pseudomonas aeruginosa [10] = assay: Antibacterial activity against Pseudomonas aeruginosa 9027 assessed as reduction in bacterial growth by CLSI based broth microdilution method

| Structure (SMILES) | MIC (Escherichia coli [1]) [µg/mL] | MIC (Escherichia coli [2]) [µg/mL] | MIC (Klebsiella pneumoniae [3]) [µg/mL] | MIC (Klebsiella pneumoniae [4]) [µg/mL] | MIC (Enterobacter cloacae [5]) [µg/mL] | MIC (Enterobacter cloacae [6]) [µg/mL] | MIC (Acinetobacter baumannii [7]) [µg/mL] | MIC (Acinetobacter baumannii [8]) [µg/mL] | MIC (Pseudomonas aeruginosa [9]) [µg/mL] | MIC (Pseudomonas aeruginosa [10]) [µg/mL] |
| --- | --- | --- | --- | --- | --- | --- | --- | --- | --- | --- |
| CC1(C)[C@H](NC(=O)/C(=N/O[C@@H](COc2ccc(NC(=O)NC3CCNCC3)cc2)C(=O)O)c2csc(N)n2)C(=O)N1OS(=O)(=O)O | 2 (≈ 2.92 µM) | 4 (≈ 5.84 µM) | 8 (≈ 11.7 µM) | > 64 | 32 (≈ 46.7 µM) | > 64 | > 64 | > 64 | 16 (≈ 23.4 µM) | 16 (≈ 23.4 µM) |
| CC1(C)[C@H](NC(=O)/C(=N\O[C@@H](COc2ccc(NC(=O)N[C@H]3CCCNC3)cc2)C(=O)O)c2csc(N)n2)C(=O)N1OS(=O)(=O)O | 8 (≈ 11.7 µM) | 0.25 (≈ 0.365 µM) | 1 (≈ 1.46 µM) | 32 (≈ 46.7 µM) | 4 (≈ 5.84 µM) | 32 (≈ 46.7 µM) | 64 (≈ 93.5 µM) | 32 (≈ 46.7 µM) | 2 (≈ 2.92 µM) | 2 (≈ 2.92 µM) |
| CC1(C)[C@H](NC(=O)/C(=N/O[C@@H](COc2ccc(NC(=O)N[C@H]3CCCNC3)cc2)C(=O)O)c2csc(N)n2)C(=O)N1OS(=O)(=O)O | 32 (≈ 46.7 µM) | 4 (≈ 5.84 µM) | 32 (≈ 46.7 µM) | > 64 | 64 (≈ 93.5 µM) | 16 (≈ 23.4 µM) | > 64 | > 64 | 64 (≈ 93.5 µM) | 32 (≈ 46.7 µM) |

Continued by falling MIC (Escherichia coli [1]), values first:

| MIC (Escherichia coli [1]) [µg/mL] | MIC (Escherichia coli [2]) [µg/mL] | MIC (Klebsiella pneumoniae [3]) [µg/mL] | MIC (Klebsiella pneumoniae [4]) [µg/mL] | MIC (Enterobacter cloacae [5]) [µg/mL] | MIC (Enterobacter cloacae [6]) [µg/mL] | MIC (Acinetobacter baumannii [7]) [µg/mL] | MIC (Acinetobacter baumannii [8]) [µg/mL] | MIC (Pseudomonas aeruginosa [9]) [µg/mL] | MIC (Pseudomonas aeruginosa [10]) [µg/mL] | Structure (SMILES) |
| --- | --- | --- | --- | --- | --- | --- | --- | --- | --- | --- |
| 32 (≈ 46.7 µM) | 8 (≈ 11.7 µM) | 32 (≈ 46.7 µM) | > 64 | 64 (≈ 93.5 µM) | 32 (≈ 46.7 µM) | > 64 | > 64 | 64 (≈ 93.5 µM) | 32 (≈ 46.7 µM) | CC1(C)[C@H](NC(=O)/C(=N/O[C@@H](COc2ccc(NC(=O)N[C@@H]3CCCNC3)cc2)C(=O)O)c2csc(N)n2)C(=O)N1OS(=O)(=O)O |
| 1 (≈ 1.46 µM) | 0.25 (≈ 0.365 µM) | 1 (≈ 1.46 µM) | 32 (≈ 46.7 µM) | 4 (≈ 5.84 µM) | 32 (≈ 46.7 µM) | 64 (≈ 93.5 µM) | 16 (≈ 23.4 µM) | 4 (≈ 5.84 µM) | 2 (≈ 2.92 µM) | CC1(C)[C@H](NC(=O)/C(=N\O[C@@H](COc2ccc(NC(=O)NC3CCNCC3)cc2)C(=O)O)c2csc(N)n2)C(=O)N1OS(=O)(=O)O |
| 0.5 (≈ 0.73 µM) | 0.25 (≈ 0.365 µM) | 0.5 (≈ 0.73 µM) | 8 (≈ 11.7 µM) | 2 (≈ 2.92 µM) | 16 (≈ 23.4 µM) | 16 (≈ 23.4 µM) | 8 (≈ 11.7 µM) | 8 (≈ 11.7 µM) | 2 (≈ 2.92 µM) | CC1(C)[C@H](NC(=O)/C(=N\O[C@@H](COc2ccc(NC(=O)N[C@@H]3CCCNC3)cc2)C(=O)O)c2csc(N)n2)C(=O)N1OS(=O)(=O)O |
